Source: paper PMC3003687, “α-Galactosylceramide Analogs with Weak Agonist Activity for Human iNKT Cells Define New Candidate Anti-Inflammatory Agents” (PLoS ONE, 2010)

Columns and labels:
human iNKT cell clones = assay: Cytokine ELISA of human iNKT cell clones stimulated with glycolipid-pulsed CD1d-transfected HeLa cells; assay type: cell-based
Protocol: Capture ELISA assays were used for measurement of cytokine responses of human iNKT cells to αGalCer analogs. One day prior to the experiment, CD1d transfected HeLa cells were plated at 25×10^3 cells/well in 100 µL of medium in flat-bottom 96 well plates. Glycolipids were then added in 100 µL of medium to give final concentrations ranging from 0.05 to 10^4 nM. The APCs were incubated for approximately 18 hours with the glycolipids and then irradiated (10,000 Rad) and washed twice with PBS prior to addition of 25×10^3 iNKT cells well in 300 µL. Supernatants were harvested after 24 hours of co-culture and stored frozen at -20°C. After thawing, aliquots of the supernatants were assayed for specific cytokines by ELISA using capture and biotin-labeled detection antibody pairs specific for GM-CSF, IL-2, IL-4, IL-12p70 and IL-13 (all obtained from BD Biosciences), IFNγ (Thermo-Scientific) or IL-18 (MBL). Specific signals were developed using HRP- conjugated streptavidin (BD Biosciences) and Turbo TMB substrate (Thermo-Scientific). Supernatants were tested pure and/or diluted to give values within a quantitative linear standard curve generated with recombinant cytokines. Curves of dose-dependent cytokine responses and graphs were plotted using the Graphpad Prism Software. EC50 values were calculated using the function log (agonist) response with variable slope, and statistical analyses were carried out using the same software. To calculate concentration-dependent cytokine ratios, IL-4/IFNγ and IL-13/IFNγ ratios were calculated using cytokine values from which background levels (i.e. levels in cultures receiving DMSO vehicle alone) were subtracted. Ratios were calculated by dividing IL-4 or IL-13 concentrations in pg/mL by IFNγ concentration in ng/mL.

human iNKT cells = conditions: cited from earlier work
Human iNKT TCRs = Human iNKT TCRs (Homo sapiens, UniProt A0A075B6N4+A0A0B4J240+P15813); assay: Equilibrium binding of analog-loaded hCD1d tetramers to iNKT cell clones
Sequence of Human iNKT TCRs (P15813 20-301): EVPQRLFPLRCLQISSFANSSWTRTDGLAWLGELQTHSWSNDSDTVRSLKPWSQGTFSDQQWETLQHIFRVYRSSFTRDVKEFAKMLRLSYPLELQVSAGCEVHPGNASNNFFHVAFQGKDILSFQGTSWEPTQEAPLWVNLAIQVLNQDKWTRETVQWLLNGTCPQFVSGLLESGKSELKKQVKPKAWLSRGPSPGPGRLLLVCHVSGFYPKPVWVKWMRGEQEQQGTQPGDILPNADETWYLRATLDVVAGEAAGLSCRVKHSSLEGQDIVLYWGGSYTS
Sequence of Human iNKT TCRs (P01848 whole entry, further chain): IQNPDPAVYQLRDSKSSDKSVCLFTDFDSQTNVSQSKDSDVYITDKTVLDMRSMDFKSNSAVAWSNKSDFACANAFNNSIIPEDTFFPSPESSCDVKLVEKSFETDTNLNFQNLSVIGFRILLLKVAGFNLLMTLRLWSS
Sequence of Human iNKT TCRs (A0A0B4J240 22-114): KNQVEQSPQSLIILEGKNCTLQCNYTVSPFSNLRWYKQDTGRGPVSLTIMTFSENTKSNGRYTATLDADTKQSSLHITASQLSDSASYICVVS
Sequence of Human iNKT TCRs (P61769 21-119, further chain): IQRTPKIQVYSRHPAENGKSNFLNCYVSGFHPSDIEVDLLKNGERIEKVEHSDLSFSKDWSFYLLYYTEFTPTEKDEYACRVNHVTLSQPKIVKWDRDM
Sequence of Human iNKT TCRs (A0A075B6N4 22-114): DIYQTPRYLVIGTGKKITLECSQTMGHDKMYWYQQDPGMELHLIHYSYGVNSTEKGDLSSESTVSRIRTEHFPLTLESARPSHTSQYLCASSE
Source text: For flow cytometric analysis, 6B11 (Vα24Jα18 specific) and mAbs specific for human CD3, CD4, CD8α, CD19, CD40L (CD154), CD56, CD69, GM-CSF & IFNγ were obtained from BD Biosciences. IL-4 and IL-13 specific mAbs were from Biolegend. Vα24 (C15) and Vβ11 (C21) specific mAb were from Immunotech. For antibody blocking in culture assays, non-specific isotype matched control, IL-2, IFNγ, IL-12p70 and CD40L specific mAbs without preservatives were obtained from BD Biosciences and IL-18 specific mAb from Medical & Biological Laboratories (MBL, Nagoya, Japan). Phycoerythrin and allophycocyanin labeled human CD1d tetramers were prepared in our laboratory as previously described. Curves of tetramer equilibrium binding constants and graphs were plotted using the Graphpad Prism Software (Version 5). KD values were calculated using the function non-linear fit (hyperbola, one binding site).
To characterize in more detail the iNKT cell TCR recognition of αGalCer analogs presented by human CD1d, we generated soluble and fluorescent tetrameric hCD1d molecules loaded with each of the glycolipid analogs. […] This was similar to the previously reported failure of mouse CD1d tetramer loaded with lysosulfatide to bind detectably to murine non-invariant and sulfatide specific NKT cells, despite a clear reactivity to this lipid upon presentation by APCs; [40]. […] To quantitate their binding avidities to iNKT cell TCRs, we used titration of analog-loaded hCD1d tetramers to determine equilibrium dissociation constants (KD), which are inversely proportional to avidity (Figure 3A and 3B).
Figure 3 Characterization of human iNKT cell TCR interactions with analog-loaded tetramers. (A) iNKT cell clones were stained with titrated amounts of hCD1d tetramers loaded with the indicated glycolipids (abbreviations as in legend to Figure 1), and the measured MFI values are plotted for selected glycolipids. (B) The equilibrium dissociation constants (KD, inversely proportional to TCR avidity) were determined as the concentrations of tetramers required to yield 50% of maximal binding. Data shown were obtained using the CD4^+ iNKT cell clone HDD3, and similar results (not shown) were obtained with a second CD4^+ clone (HDD11) and a CD4^−8^− double negative iNKT cell clone (HDE3). (C) Analysis of iNKT cell clones labeled with 20 nM of hCD1d tetramers which were loaded with variable excesses of analog to constant hCD1d (25 to 1000 fold molar excess of glycolipid to hCD1d protein). The measured MFI values were normalized as the percent of the maximum staining intensity obtained with each analog loaded tetramer. Data presented were generated with HDD3 (CD4+) iNKT cell clone, and similar results (not shown) were obtained with HDE3 (DN) clone.

## CCCCCCCCCCCCCCCCCCCCCCCCCC(=O)N[C@@H](CC[C@H]1O[C@H](CO)[C@H](O)[C@H](O)[C@H]1O)[C@H](O)[C@H](O)CCCCCCCCCCCCCC [C-glycoside]
Human iNKT cell clones; CD4+ clone HDD3
  reactivity of HDD3 iNKT cell clone: did not display detectable reactivity
Human iNKT cell clones; primarily IL-13 production, limited induction of IFNγ
  reactivity of a fraction of the iNKT cell clones tested: weak, but detectable, reactivity
Human iNKT cell clones; six clones tested
  clones with detectable reactivity: Two clones out of six clones tested
Human iNKT cells
  stimulation of human iNKT cells in culture: only weakly stimulatory
Human iNKT TCRs
  staining of iNKT cell clones by analog-loaded hCD1d tetramers: only a weak staining intensity of a subset of iNKT cell clones tested
